Reference: patent US5789434A, “Derivatives of substituted 4-biarylbutyric acid as matrix metalloprotease inhibitors” (priority 1995, dated 1998)

How the values were obtained:
Format in all cases: biochemical
MMP-2 = molecular target: T1, MMP-2 (Homo sapiens, UniProt P08253); assay: Automated MMP Profiling Assay, MMP-2 fluorogenic; conditions: for IC50: 96-well automated, P218, read-out: MMP-2 Fluorogenic IC50 (profiling)
T1 sequence (P08253 110-660): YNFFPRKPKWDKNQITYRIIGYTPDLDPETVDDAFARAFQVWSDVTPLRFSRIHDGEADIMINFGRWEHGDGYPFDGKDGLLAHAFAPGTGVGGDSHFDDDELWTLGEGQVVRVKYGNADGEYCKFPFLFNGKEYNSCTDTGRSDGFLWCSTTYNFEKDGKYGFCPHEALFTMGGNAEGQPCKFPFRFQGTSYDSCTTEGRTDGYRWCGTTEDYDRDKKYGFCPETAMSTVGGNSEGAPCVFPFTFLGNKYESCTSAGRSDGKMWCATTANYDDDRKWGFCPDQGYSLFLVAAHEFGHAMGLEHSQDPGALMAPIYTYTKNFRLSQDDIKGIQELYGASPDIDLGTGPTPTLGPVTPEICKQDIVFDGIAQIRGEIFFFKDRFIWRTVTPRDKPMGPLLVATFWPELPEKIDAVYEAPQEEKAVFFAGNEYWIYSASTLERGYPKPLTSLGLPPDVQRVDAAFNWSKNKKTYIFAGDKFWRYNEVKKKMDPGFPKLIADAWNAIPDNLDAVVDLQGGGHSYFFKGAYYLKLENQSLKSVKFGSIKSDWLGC

MMP-9 = molecular target: T2, MMP-9 (Homo sapiens, UniProt P14780); assay: Automated MMP Profiling Assay, MMP-9 fluorogenic; conditions: for IC50: 96-well automated, P218
T2 construct: from tissue; host or cells: human polymorphonuclear leukocytes (PMN) from whole blood (New York Blood Center), PMA-stimulated supernatant
T2 sequence (P14780 107-707 limits assumed): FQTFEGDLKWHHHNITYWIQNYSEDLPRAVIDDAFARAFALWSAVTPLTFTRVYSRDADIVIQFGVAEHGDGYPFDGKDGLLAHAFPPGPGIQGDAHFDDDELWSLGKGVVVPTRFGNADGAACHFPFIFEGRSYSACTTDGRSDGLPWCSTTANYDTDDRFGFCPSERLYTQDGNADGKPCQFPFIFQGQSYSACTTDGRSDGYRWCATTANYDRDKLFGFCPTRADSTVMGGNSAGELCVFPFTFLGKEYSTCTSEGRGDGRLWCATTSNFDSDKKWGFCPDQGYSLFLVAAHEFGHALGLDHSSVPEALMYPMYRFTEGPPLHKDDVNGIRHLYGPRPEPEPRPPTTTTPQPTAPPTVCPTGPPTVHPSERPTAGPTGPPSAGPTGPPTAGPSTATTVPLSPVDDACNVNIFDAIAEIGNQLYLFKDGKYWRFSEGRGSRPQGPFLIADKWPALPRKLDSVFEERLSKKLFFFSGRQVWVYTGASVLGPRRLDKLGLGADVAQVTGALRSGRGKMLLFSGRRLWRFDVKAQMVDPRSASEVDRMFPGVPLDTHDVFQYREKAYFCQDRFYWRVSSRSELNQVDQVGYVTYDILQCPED

MMP-3 = molecular target: T3, MMP-3 (Homo sapiens, UniProt P08254); assay: Automated MMP Profiling Assay, MMP-3 fluorogenic; conditions: for IC50: 96-well automated, P218
T3 construct: Truncated Prostromelysin-257 was expressed in a soluble form in E.coli; made in house; host or cells: E. coli
T3 sequence (P08254 100-274 limits assumed): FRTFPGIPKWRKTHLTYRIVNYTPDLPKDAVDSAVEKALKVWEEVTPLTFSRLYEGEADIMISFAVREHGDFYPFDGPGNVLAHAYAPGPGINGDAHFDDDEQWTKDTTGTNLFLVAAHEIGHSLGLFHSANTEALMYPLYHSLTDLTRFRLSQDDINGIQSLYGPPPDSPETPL
Source text: This assay with each invention compound was run with the three enzymes MMP-3, MMP-9 and MMP-2 in parallel as adapted for a 96-well microtitre plate using a Hamilton A® workstation.

## O=C(CC(CCNC(=O)c1ccccc1C(=O)O)C(=O)O)c1ccc(-c2ccc(Cl)cc2)cc1 (single isomer, unassigned) [Example 280, [1,1'-Biphenyl]-4-butanoic acid, α-[2-[(2-carboxybenzoyl)amino]ethyl]-4'-chloro-γ-oxo-]
MMP-2
  IC50: 29 nM
MMP-9
  IC50: 66 nM
MMP-3
  IC50: 146 nM

## CCCCCOc1ccc(-c2ccc(C(=O)[C@H]3CC[C@@H](Sc4ccccc4)[C@@H]3C(=O)O)cc2)cc1 (single isomer, unassigned) [Example 319, Cyclopentanecarboxylic acid, 2-[[4'-(pentyloxy)[1,1'-biphenyl]-4-yl]carbonyl]-5-(phenylthio)-, (1α,2β,5β)-(+)-]
MMP-2
  IC50: 4.1 nM
MMP-9
  IC50: 197 nM
MMP-3
  IC50: 30 nM

## CCCCCOc1ccc(-c2ccc(C(=O)[C@H]3CC[C@@H](Sc4ccccc4)[C@@H]3C(=O)O)cc2)cc1 (single isomer, unassigned) [Example 320, Cyclopentanecarboxylic acid, 2-[[4'-(pentyloxy)[1,1'-biphenyl]-4-yl]carbonyl]-5-(phenylthio)-, (1α,2β,5β)-(-)-]
MMP-2
  inhibition at 5 µM: 24%
MMP-9
  inhibition at 5 µM: 6%
MMP-3
  inhibition at 5 µM: 6%

## O=C(CC(CCCc1ccccc1)C(=O)O)c1ccc(-c2ccc(C(=O)O)o2)cc1 (stereo not drawn) [Example 69, 2-Furancarboxylic acid, 5-[4-(3-carboxy-1-oxo-6-phenylhexyl)phenyl]-]
MMP-2
  inhibition at 5 µM: 0%
MMP-9
  inhibition at 5 µM: 0%
MMP-3
  inhibition at 5 µM: 0%

## O=C(CC(CCCc1ccccc1)C(=O)O)c1ccc(-c2cccnc2)cc1 (stereo not drawn) [Example 70, Benzenepentanoic acid, α-[2-oxo-2-[4-(3-pyridinyl)phenyl]ethyl]-]
MMP-2
  IC50: 1750 nM
MMP-9
  inhibition at 5 µM: 7%
MMP-3
  inhibition at 5 µM: 44%

## CCCCCOc1ccc(-c2ccc(C(=O)CC(CCCc3ccccc3)C(=O)O)cc2)cn1 (stereo not drawn) [Example 71, Benzenepentanoic acid, α-[2-oxo-2-[4-[6-(pentyloxy)-3-pyridinyl]phenyl]ethyl]-]
MMP-2
  IC50: 969 nM
MMP-9
  inhibition at 5 µM: 24%
MMP-3
  IC50: 1160 nM

## CCCCCSc1ccc(-c2ccc(C(=O)CC(CCCc3ccccc3)C(=O)O)cc2)cc1 (stereo not drawn) [Example 72, [1,1'-Biphenyl]-4-butanoic acid, γ-oxo-4'-(pentylthio)-α-(3-phenylpropyl)-]
MMP-2
  IC50: 90 nM
MMP-9
  inhibition at 5 µM: 22%
MMP-3
  IC50: 409 nM

## CCCCCOc1ccc(-c2ccc(C(=O)C[C@@H](CCCc3ccccc3)C(=O)O)cc2)cc1 [Example 87, 4-[4-(4-pentyloxyphenyl)phenyl]-4-oxo-2R-(3-phenylpropyl)butanoic acid]
MMP-2
  inhibition at 5 µM: 40%
MMP-9
  inhibition at 5 µM: 0%
MMP-3
  inhibition at 5 µM: 8%

## O=C(CC(CCCc1ccccc1)C(=O)O)c1ccc(-c2ccc(OCC3CCCCC3)cc2)cc1 (stereo not drawn) [Example 93, [1,1'-Biphenyl]-4-butanoic acid, 4'-(cyclohexylmethoxy)-γ-oxo-α-(3-phenylpropyl)-]
MMP-2
  IC50: 36 nM
MMP-9
  IC50: > 1250 nM
MMP-3
  IC50: 129 nM

## CC(C)COc1ccc(-c2ccc(C(=O)CC(CCCc3ccccc3)C(=O)O)cc2)cc1 (stereo not drawn) [Example 94, [1,1'-Biphenyl]-4-butanoic acid, 4'-(2-methylpropoxy)-γ-oxo-α-(3-phenylpropyl)-]
MMP-2
  IC50: 155 nM
MMP-9
  IC50: 1850 nM
MMP-3
  IC50: 224 nM

## C=CCOc1ccc(-c2ccc(C(=O)CC(CCCc3ccccc3)C(=O)O)cc2)cc1 (stereo not drawn) [Example 95, [1,1'-Biphenyl]-4-butanoic acid, γ-oxo-α-(3-phenylpropyl)-4'-(2-propenyloxy)-]
MMP-2
  IC50: 26 nM
MMP-9
  IC50: 77 nM
MMP-3
  IC50: 79 nM

## CC(C)CCOc1ccc(-c2ccc(C(=O)CC(CCCc3ccccc3)C(=O)O)cc2)cc1 (stereo not drawn) [Example 96, [1,1'-Biphenyl]-4-butanoic acid, 4'-(3-methylbutoxy)-γ-oxo-α-(3-phenylpropyl)-]
MMP-2
  IC50: 72 nM
MMP-9
  IC50: > 1250 nM
MMP-3
  IC50: 232 nM

## O=C(CC(CCCc1ccccc1)C(=O)O)c1ccc(-c2ccc(OCC3CC3)cc2)cc1 (stereo not drawn) [Example 97, [1,1'-Biphenyl]-4-butanoic acid, 4'-(cyclopropylmethoxy)-γ-oxo-α-(3-phenylpropyl)-]
MMP-2
  IC50: 48 nM
MMP-9
  IC50: 229 nM
MMP-3
  IC50: 153 nM

## O=C(CC(CCCc1ccccc1)C(=O)O)c1ccc(-c2ccc(OCc3ccccc3)cc2)cc1 (stereo not drawn) [Example 99, 4-[4-(4-benzyloxyphenyl)phenyl]-4-oxo-2-(3-phenylpropyl)butanoic acid]
MMP-2
  IC50: 26 nM
MMP-9
  IC50: 835 nM
MMP-3
  IC50: 36 nM

## O=C(C[C@@H](CCCc1ccccc1)C(=O)O)c1ccc(-c2ccc(OCc3ccccc3)cc2)cc1 [Example 101, 4-[4-(4-benzyloxyphenyl)phenyl]-4-oxo-2R-(3-phenylpropyl)butanoic acid]
MMP-2
  IC50: 3320 nM
MMP-9
  inhibition at 5 µM: 10%
MMP-3
  inhibition at 5 µM: 45%

## O=C(CC(CCCc1ccccc1)C(=O)O)c1ccc(-c2ccc(OCCc3ccccc3)cc2)cc1 (stereo not drawn) [Example 102, [1,1'-Biphenyl]-4-butanoic acid, γ-oxo-4'-(2-phenylethoxy)-α-(3-phenylpropyl)-]
MMP-2
  IC50: 25 nM
MMP-9
  IC50: 698 nM
MMP-3
  IC50: 78 nM

## Cc1ccc(COc2ccc(-c3ccc(C(=O)CC(CCCc4ccccc4)C(=O)O)cc3)cc2)cc1 (stereo not drawn) [Example 103, [1,1'-Biphenyl]-4-butanoic acid, 4'-[(4-methylphenyl)methoxy]-γ-oxo-α-(3-phenylpropyl)-]
MMP-2
  IC50: 30 nM
MMP-9
  inhibition at 5 µM: 28%
MMP-3
  IC50: 57 nM

## O=C(CC(CCCc1ccccc1)C(=O)O)c1ccc(-c2ccc(OCc3ccc(C(F)(F)F)cc3)cc2)cc1 (stereo not drawn) [Example 104, [1,1'-Biphenyl]-4-butanoic acid, γ-oxo-α-(3-phenylpropyl)-4'-[[4-(trifluoromethyl)phenyl]methoxy]-]
MMP-2
  IC50: 63 nM
MMP-9
  inhibition at 5 µM: 18%
MMP-3
  IC50: 125 nM

## COc1ccc(COc2ccc(-c3ccc(C(=O)CC(CCCc4ccccc4)C(=O)O)cc3)cc2)cc1 (stereo not drawn) [Example 105, [1,1'-Biphenyl]-4-butanoic acid, 4'-[(4-methoxyphenyl)methoxy]-γ-oxo-α-(3-phenylpropyl)-]
MMP-2
  IC50: 14 nM
MMP-9
  inhibition at 5 µM: 37%
MMP-3
  IC50: 33 nM

## O=C(CC(CCCc1ccccc1)C(=O)O)c1ccc(-c2ccc(OCc3cccc(Cl)c3)cc2)cc1 (stereo not drawn) [Example 106, [1,1'-Biphenyl]-4-butanoic acid, 4'-[(3-chlorophenyl)methoxy]-γ-oxo-α-(3-phenylpropyl)-]
MMP-2
  IC50: 43 nM
MMP-9
  IC50: 622 nM
MMP-3
  IC50: 57 nM

## O=C(CC(CCCc1ccccc1)C(=O)O)c1ccc(-c2ccc(OCc3ccc(F)cc3)cc2)cc1 (stereo not drawn) [Example 107, [1,1'-Biphenyl]-4-butanoic acid, 4'-[(4-fluorophenyl)methoxy]-γ-oxo-α-(3-phenylpropyl)-]
MMP-2
  IC50: 16 nM
MMP-9
  inhibition at 5 µM: 34%
MMP-3
  IC50: 32 nM

## CCCCCCCCCCOc1ccc(-c2ccc(C(=O)CC(CCCc3ccccc3)C(=O)O)cc2)cc1 (stereo not drawn) [Example 108, [1,1'-Biphenyl]-4-butanoic acid, 4'-(decyloxy)γ-oxo-α-(3-phenylpropyl)-]
MMP-2
  inhibition at 5 µM: 16%
MMP-9
  inhibition at 5 µM: 4%
MMP-3
  inhibition at 5 µM: 8%

## O=C(CC(CCCc1ccccc1)C(=O)O)c1ccc(-c2ccc(OCc3cccnc3)cc2)cc1 (stereo not drawn) [Example 109, [1,1'-Biphenyl]-4-butanoic acid, γ-oxo-α-(3-phenylpropyl)-4'-(3-pyridinylmethoxy)-]
MMP-2
  IC50: 6.6 nM
MMP-9
  IC50: 1290 nM
MMP-3
  IC50: 28 nM

## O=C(CC(CCCc1ccccc1)C(=O)O)c1ccc(-c2ccc(OCc3ccccn3)cc2)cc1 (stereo not drawn) [Example 110, [1,1'-Biphenyl]-4-butanoic acid, γ-oxo-α-(3-phenylpropyl)-4'-(2-pyridinylmethoxy)-]
MMP-2
  IC50: 38 nM
MMP-9
  inhibition at 5 µM: 26%
MMP-3
  IC50: 37 nM

## O=C(CC(CCCc1ccccc1)C(=O)O)c1ccc(-c2ccc(OCc3ccncc3)cc2)cc1 (stereo not drawn) [Example 111, [1,1'-Biphenyl]-4-butanoic acid, γ-oxo-α-(3-phenylpropyl)-4'-(4-pyridinylmethoxy)-]
MMP-2
  IC50: 3.9 nM
MMP-9
  IC50: 4730 nM
MMP-3
  IC50: 18 nM

## NC(=O)c1ccc(COc2ccc(-c3ccc(C(=O)CC(CCCc4ccccc4)C(=O)O)cc3)cc2)cc1 (stereo not drawn) [Example 112, [1,1'-Biphenyl]-4-butanoic acid, 4'-[[4-(aminocarbonyl)phenyl]methoxy]-γ-oxo-α-(3-phenylpropyl)-]
MMP-2
  IC50: 11 nM
MMP-9
  IC50: 884 nM
MMP-3
  IC50: 30 nM

## O=C(O)c1ccc(COc2ccc(-c3ccc(C(=O)CC(CCCc4ccccc4)C(=O)O)cc3)cc2)cc1 (stereo not drawn) [Example 113]
MMP-2
  IC50: 44 nM
MMP-9
  IC50: 1330 nM
MMP-3
  IC50: 28 nM

## O=C(CC(CCc1cccc(I)c1)C(=O)O)c1ccc(-c2ccc(Cl)cc2)cc1 (stereo not drawn) [Example 127, [1,1'-Biphenyl]-4-butanoic acid, 4'-chloro-α[2-(3-iodophenyl)ethyl]-γ-oxo-]
MMP-2
  IC50: 40 nM
MMP-9
  IC50: 1220 nM
MMP-3
  IC50: 605 nM
